Laboratory results: patent publication US5232917A, “Methods, compositions, and compounds for allosteric modulation of the GABA receptor by members of the androstane and pregnane series” (priority 1991, dated 1993)
pIC50: −log10 of the molar value. Where two headings read alike, the source gives them in different places.

Key:
[1] = tested on: punished responding; experiment: Vogel conflict paradigm (lick suppression); assay type: in vivo, mice (male N.I.H. Swiss-Webster); details: CDP 10 mg/kg
Text: An Anxio-Monitor (Omnitech Electronics, Columbus, Ohio) was used for measuring lick suppression. The testing chamber consisted of a clear plexiglass box (29 cm×29 cm×23 cm) with a metal drinking tube located 2.5 cm from the floor and extending 2 cm into the box. The shock was applied through the drinking spout and was controlled by the Anxio-Monitor. […] The reinforcer was 0.1M sucrose.
The conflict test procedure described by Vogel et al. (1980) was employed. This procedure is a modification of the original lick suppression test first described by Vogel et al. (1971). After 24 hr. of water deprivation,mice were allowed to explore the test apparatus and drink without punishment for 10 min. or 100 licks. […] Mice were allowed unpunished access to the drinking tube for 20 licks, thereafter, every 10th lick was punished with 0.1 mA shock. The test duration was 5 min.
(§1) The vehicle control data were analyzed across test days using an 1-way analysis of variance (ANOVA). […] The dose-response curves were then analyzed using an 1-way ANOVA, followed by Dunnett's t-test for individual comparisons between doses and control. The open-field and habituated locomotor data were analyzed using ANOVA followed by Dunnett's t-test. […] All data is expressed as the mean±S.E.M.

[2] = tested on: number of light/dark transitions (anxiety); experiment: Light/dark transition test; assay type: in vivo, mice (male N.I.H. Swiss-Webster)
Text: (§2) The light/dark transition test (Crawley and Goodwin, 1980) is based on the observation that rodents naturally tend to explore novel environments, but open, brightly lit arenas are aversive to the rodents and inhibit exploratory behavior (Christmas and Maxwell, 1970; File, 1980). […] Similar to the light/dark transition test, the open-field test measures the antagonism between the tendency to explore a novel environment and the tendency to remain still in an aversive environment (brightly lit arena). […] The open-field test provides a simple, non-punished assessment of the potential anxiolytic properties of novel compounds. Finally, 3α-OH-DHP was tested for anxiolytic properties in a Vogel conflict paradigm. The ability of BZs to attenuate the suppression of behavior by punishment in conflict paradigms is well established (Gellar et al., 1962; Vogel et al., 1971).
(§3) Male N.I.H. Swiss-Webster mice (Harlan) weighing 15-20 g were used in all experiments. The mice were housed 4/cage in polyethylene cages with sawdust bedding. The colony room was environmentally controlled (22° C.) with a 12 hr. light/dark cycle (0600-1800 hrs.). The mice had free access to food and water. The experiments were run from 0700-1500 hrs. and groups were counterbalanced for time of day effects.
The method used was previously described by Crawley and Goodwin (1980). The apparatus included a large box (26×33×24 cm) connected to a small box (15×22×14 cm) through an opening (5×6 cm). The large box was brightly lit with a standard 100W light bulb, while the small box was kept dark. Following pretreatment with a test drug, mice were placed in the center of the large box and the number of transitions between the large and small boxes was counted for 10 min. […] During the antagonist studies, CGS-8216 was administered 30 min. prior to the test drug.
(§4) 2-Hydroxypropyl β-cyclodextrin Diazepam and chlordiazepoxide are available from Sigma, Co. (St. Louis, Mo.). CGS-8216 was obtained from Ciba-Geigy (Summit, N.J.). All drugs were dissolved in 20% β-cyclodextrin in water and sonicated overnight. All drugs were administered intraperitoneally in a volume of 100 μL/20 g. CGS-8216 was administered subcutaneously in a volume of 100 μL/20 g.
as §1

[3] = tested on: number of light/dark transitions (anxiety); details: Crawley et al., cited from earlier work; for effect on number of light/dark transitions (literature): Blumstein and Crawley, 1983
[4] = tested on: GABA receptor complex (36Cl uptake, cerebral cortical synaptoneurosomes); experiment: GABA-stimulated 36Cl uptake in rat cerebral cortical synaptoneurosomes; assay type: biochemical, rat (male Sprague-Dawley)
Description: In addition, the ability of the BZ clonazepam to modulate ^36 Cl uptake in the presence or absence of 5α-pregnandiol was evaluated.
The homogenate was diluted to a final volume of 40 mL with buffer and filtered through three layers of Nylon mesh (160 μm).
Aliquots of membrane preparation (200 μL) were preincubated at 30° C. for 10 min. The interaction was initiated by the simultaneous addition of drugs/steroids and 0.2 mL ^36 Cl (New England Nuclear Boston, Mass., 0.55 mCi/mmol, 0.8 μCi/ml) resulting in a total incubation volume of 0.4 mL. Steroids and test drugs were solubilized in dimethylsufoxide (DMSO) and added to the reaction mixture in 2 μL aliquots. An equal volume of vehicle was always included in the control reaction mixture. The mixture was gently mixed and ^36 Cl uptake terminated after 5 sec by the of 5 mL of ice cold buffer containing 100 μM picrotoxin (Sigma Chem Co.) followed immediately by rapid filtration through glass fiber filters (Whatman GF/C) under vacuum. The filters were washed twice with 5 mL of ice-cold buffer and the filter-bound radioactivity quantitated by liquid scintillation spectrophotometry. Specific uptake was calculated by subtracting the amount of ^36 Cl bound to the filters in the absence of synaptoneurosomes from that observed in their presence. Percent enhancement represents percent increase in uptake over that of basal ^36 Cl uptake. Statistical comparisons utilized the analysis of variance (ANOVA).

[5] = tested on: maximal electroshock seizure; details: Swinyard & Woodhead, 1982; cited from earlier work
[6] = tested on: metrazol-induced convulsions; details: Swinyard & Woodhead, 1982; cited from earlier work
[7] = tested on: (+)bicuculline-induced seizures; details: Swinyard & Woodhead, 1982; cited from earlier work
[8] = tested on: picrotoxin-induced convulsions; details: Swinyard & Woodhead, 1982; cited from earlier work
[9] = tested on: strychnine-induced convulsions; set-up: key to ED50 STR (strychnine): NP: no protection; details: Swinyard & Woodhead, 1982; cited from earlier work
[10] = tested on: sedative potential (rotorod); details: Swinyard & Woodhead, 1982; cited from earlier work
[11] = Swinyard & Woodhead, 1982; cited from earlier work
[12] = tested on: open-field activity; experiment: Open-field activity test; assay type: in vivo, mice (male N.I.H. Swiss-Webster); details: diazepam 10 mg/kg
Text: as §2, §3
As a secondary measure of anxiolytic effects, naive mice were placed in the center of a large, brightly lit plexiglass box (42×42×30.5 cm) and the total distance traveled was measured during a 10 min. test period. […] The Digiscan Activity Monitor (Omnitech Electronics, Columbus, Ohio) includes 16 photobeams that surround the box. The activity monitor is linked to a computer through a Digiscan Analyzer (Omnitech Electronics) and the data is analyzed using the Integrated Lab Animal Monitoring System (Omnitech Electronics). The mice were administered drugs as described for light/dark transitions.
as §4, §1

[13] = tested on: locomotor activity; experiment: Locomotor activity in habituated mice; assay type: in vivo, mice (male N.I.H. Swiss-Webster)
Description: For evaluation of a drug's effects on general activity, mice were first habituated to the open-field apparatus for 15 min. The following day, mice were pretreated with a test drug and placed in the center of the activity chambers. The total distance traveled was measured for 10 min.
as §1

[14] = tested on: PMS, PND and catamenial epilepsy; details: cited from earlier work; for clinical effectiveness: PMS, PND, catamenial epilepsy (progesterone), menstrual-cycle correlated epileptic spells (desoxycorticosterone)
[15] = tested on: GABA receptor-chloride ionophore complex (GR complex); experiment: [35S]TBPS binding modulation assay

CNC1=Nc2ccc(Cl)cc2C(c2ccccc2)=[N+]([O-])C1 [CDP, reference compound]
increase in punished responding vs controls ([1]; 5 min session, p=0.03, FIG. 14): 197.4% | punished responding ([1]; controls 3.11±0.68): 6.14±1.14

O=C1C2C=Nc3ccccc3C2=NN1c1ccccc1 (stereo not drawn) [CGS-8216, reference compound]
block of anxiolytic effect of 3α-OH-DHP by CGS-8216 ([2]; CGS-8216 10 mg/kg, 3α-OH-DHP 10 mg/kg, FIG. 13A): unable to block | block of anxiolytic effect of diazepam by CGS-8216 ([2]; diazepam 1.0 mg/kg, FIG. 13B): able to block the anxiolytic effect of diazepam | intrinsic activity in light/dark transition test ([2]; p>0.4 vs vehicle): did not demonstrate any intrinsic activity | block of diazepam's anxiolytic effects (literature) [3]; 1984: block diazepam's anxiolytic effects

O=C1CN=C(c2ccccc2Cl)c2cc([N+](=O)[O-])ccc2N1 [Clonazepam]
% enhancement of basal 36Cl uptake ([4]; GABA (25 μM) + clonazepam (1 μM)): 164±2% | % enhancement of basal 36Cl uptake ([4]; clonazepam (1 μM), no GABA): 1 ± 0.5% | ED50 MES (maximal electroshock) [5]: 93 mg/kg | ED50 MTZ (metrazol) [6]: 0.009 mg/kg | ED50 BIC (bicuculline) [7]: 0.0086 mg/kg | ED50 PICRO (picrotoxin) [8]: 0.043 mg/kg | ED50 STR (strychnine) [9]: NP | effect on number of light/dark transitions (literature) [3]: increase the number of transitions | ED50 RR (Rotorod) [10]: 0.184 mg/kg | LD50 [11]: > 6000 mg/kg

CN1C(=O)CN=C(c2ccccc2)c2cc(Cl)ccc21 [Diazepam, reference compound]
effect on number of light/dark transitions (words) ([2]; 3α-OH-DHP 10, 20, 40 mg/kg, 5α-THDOC 20 mg/kg, diazepam 1.0, 5.0, 10, 20 mg/kg, 20 mg/kg): significantly (p<0.01) different from controls | number of transitions in 10 min (maximal response) ([2]; diazepam 10 mg/kg i.p., FIG. 11): 86.4±5.4 transitions | total distance, open-field ([12]; 10 min, vehicle 2004.6 ± 134.6): 4817.7 ± 528.4 cm | effect on open-field activity ([12]; steroids 20 mg/kg): significant (p<0.01) increase in activity | effect on locomotor activity ([13]; acclimated mice): no effect | total distance traveled, acclimated mice ([13]; diazepam 10 mg/kg, controls 2061.2±157.7 cm): 2258.0±897.7 cm | effect on number of light/dark transitions (literature) [3]: increase the number of transitions

CC(=O)[C@H]1CC[C@H]2[C@@H]3CCC4=CC(=O)CC[C@]4(C)[C@H]3CC[C@]12C [PROGESTERONE, reference compound]
dose-response relationship in the treatment of PMS ([14]; Maddocks et al., Dennerstein et al.): no dose-response relationship exists | clinical effectiveness [14]: not consistently effective | potency/activity at the GR complex ([15]; modulation of [35S]TBPS binding): very low potency | pIC50 ([15]; read-out: IC50, inhibition of [35S]-TBPS binding, +5 μM GABA, in the presence of 5 μM GABA): 5.28 | pIC50 ([15]; read-out: IC50, inhibition of [35S]-TBPS binding, No GABA, washed synaptoneurosomes, no GABA added): < 4.00 | Max. Inhib., maximal % of specifically bound [35S]-TBPS displaced ([15]; saturating concentrations of test compound): 100%

C[C@]12CC[C@H]3[C@@H](CCC4=CC(=O)CC[C@@]43C)[C@@H]1CC[C@@H]2C(=O)CO [desoxycorticosterone]
clinical effectiveness [14]: effective
